US10124065B2, “Lipids and lipid compositions for the delivery of active agents” (Novartis AG, priority 2013, dated 2018)
Several values for one entry are separate records, joined by “and”; a condition that tells them apart may be missing. Identical values can stand only once.

Assays:
[1] = system: plasma Factor VII enzyme activity; test: Mouse Factor VII dosing / Factor VII Activity Assay; format: in vivo; conditions: percent knock down of plasma Factor VII activity, CD-1 mice, 48 h; for KD FVII 0.03 mg/kg: single IV dose 0.03 mg/kg, LNP Chol/DSPC/S010 45/44/9/2; for KD FVII 0.3 mg/kg: single IV dose 0.3 mg/kg, LNP Chol/DSPC/PEG-DMG 45/44/9/2
Procedure: Female CD-1 mice were received from Harlan Labs and maintained on standard lab chow and water ad libitum. The animals weighed approximately 25 grams at time of dosing. Formulated Factor VII siRNA was administered as a single dose intravenously via the lateral tail vein. Approximately 48 hours after injection, the mice were euthanized by CO2 inhalation followed by exsanguination through the vena cava. […] Plasma collected from injected mice was assayed for Factor VII enzyme activity using the Biophen FVII kit from Hyphen Biomedical (catalog number 221304). An assay standard curve was prepared using pooled plasma aliquots from the vehicle control animals. All samples were diluted to fall within the linear range of the standard curve and Factor VII activity relative to control plasma was reported. Lipid nanoparticles comprising lipid compounds of formula (I) and the FVII siRNA duplex sequence listed above were tested in the Factor VII Activity Assay. The results of this assay are given in Table 4 below as a percent knock down of plasma Factor VII enzyme activity at a dose of 0.3 mg/kg and 0.03 mg/kg.

[2] = system: respiratory syncytial virus F protein; test: Immunization studies, anti-RSV-F titers; format: in vivo; conditions: anti-RSV-F titer, BALB/c, liposomes with 0.1 μg vA317 replicon (naked: 1 μg); for 2wp1 pool 1 / 2wp1 pool 2: 2 weeks after first dose; for 2wp2 pool 1 / 2wp2 pool 2: 2 weeks after second dose; for 4wp2 pool 1 / 4wp2 pool 2: 4 weeks after second dose
Procedure: BALB/c were immunized with liposomes comprising DSPC, cholesterol, and various lipids of the invention (or, for comparison, the cationic lipid 1,2-dilinoleyloxy-N,N-dimethyl-3-aminopropane or ‘DLinDMA’). The liposomes encapsulated 0.1 μg of “vA317” self-replicating RNA replicon which encodes respiratory syncytial virus F protein (see WO2012/031043). […] Doses were given either on days 0 & 21 or days 0 & 42. Immune responses were assessed 2 weeks after each dose (2wp1, 2wp2), and in some cases also at 4 weeks after the second dose (4wp2).

| SMILES | 2wp1 pool 1 ([2]; course A = days 0 & 21) | 2wp1 pool 2 ([2]; course A = days 0 & 21) | 2wp2 pool 1 ([2]; course A = days 0 & 21) | 2wp2 pool 2 ([2]; course A = days 0 & 21) | 4wp2 pool 1 ([2]; course A = days 0 & 21) | 4wp2 pool 2 ([2]; course A = days 0 & 21) | further results |
| --- | --- | --- | --- | --- | --- | --- | --- |
| CCCCCCCC(=O)OCCCCCCCCCCOc1cc(CN(CC)CC)cc(OCCCCCCCCCCOC(=O)CCCCCCC)c1OCCCCCCCCCCOC(=O)CCCCCCC [Ex. 100, ((5-((diethylamino)methyl)benzene-1,2,3-triyl)tris(oxy))tris(decane-10,1-diyl)trioctanoate] | – | – | – | – | – | – | KD FVII 0.03 mg/kg [1]: 26.9%; KD FVII 0.3 mg/kg [1]: 94.0% |
| CCCCC/C=C\C/C=C\CCCCCCCCOc1cc(CCCOC(=O)CCN(C)C)cc(OCCCCCCCC/C=C\C/C=C\CCCCC)c1 [Example 81, 3-(3,5-bis((9Z,12Z)-octadeca-9,12-dien-1-yloxy)phenyl)propyl 3-(dimethylamino)propanoate] | 1779 | 1553 | 24648 | 15304 | 41921 | 34684 | – |
| CCCCCCCC(=O)OC[C@H](CCOc1cc(CN(C)C)cc(OCC[C@@H](COC(=O)CCCCCCC)OC(=O)CCCCCCC)c1)OC(=O)CCCCCCC [Example 93, (S)-4-(3-((S)-3,4-bis(octanoyloxy)butoxy)-5-((dimethylamino)methyl)phenoxy)butane-1,2-diyldioctanoate] | – | – | – | – | – | – | KD FVII 0.03 mg/kg [1]: 89.71% |
| CCCCCCCCCC(=O)OCCCCCCOc1cc(CN(C)C)cc(OCCCCCCOC(=O)CCCCCCCCC)c1 [Example 47, ((5-((dimethylamino)methyl)-1,3-phenylene)bis(oxy))bis(hexane-6,1-diyl)bis(decanoate)] | – | – | – | – | – | – | KD FVII 0.3 mg/kg [1]: 99% |
| CCCCCCCC/C=C\CCCCCCCC(=O)OCCCCOc1cc(CN(C)C)cc(OCCCCOC(=O)CCCCCCC/C=C\CCCCCCCC)c1 [Example 60, (Z)-((5-((dimethylamino)methyl)-1,3-phenylene)bis(oxy))bis(butane-4,1-diyl)dioleate] | – | – | – | – | – | – | KD FVII 0.03 mg/kg [1]: 49.75% |
| CCCCC/C=C\C/C=C\CCCCCCCCNC(=O)c1cc(COC(=O)CCCN(C)C)cc(C(=O)NCCCCCCCC/C=C\C/C=C\CCCCC)c1 [Example 66, 3,5-bis((9Z,12Z)-octadeca-9,12-dien-1-ylcarbamoyl)benzyl 4-(dimethylamino)butanoate] | 75 | 75 | 75 | 75 | 75 | 75 | – |
| CC/C=C\C/C=C\C/C=C\CCCCCCCC(=O)OCCCCOc1cc(CN(C)C)cc(OCCCCOC(=O)CCCCCCC/C=C\C/C=C\C/C=C\CC)c1 [Example 62, (9Z,9′Z,12Z,12′Z,15Z,15′Z)-((5-((dimethylamino)methyl)-1,3-phenylene)bis(oxy))bis(butane-4,1-diyl)bis(octadeca-9,12,15-trienoate)] | – | – | – | – | – | – | KD FVII 0.03 mg/kg [1]: 85.8% |
| CCCCC/C=C\C/C=C\CCCCCCCC(=O)OCc1cc(COC(=O)CCCCCCC/C=C\C/C=C\CCCCC)cc(COC(=O)CCN(C)C)c1 [Example 29, (9Z,9′Z,12Z,12′Z)-(5-(((3-(dimethylamino)propanoyl)oxy)methyl)-1,3-phenylene)bis(methylene)bis(octadeca-9,12-dienoate)] | 2101 | 3584 | 12529 | 18669 | 23930 | 37278 | – |
| CCCCCCCC(=O)OC[C@@H](CCOc1cc(CN(C)C)cc(OCC[C@H](COC(=O)CCCCCCC)OC(=O)CCCCCCC)c1)OC(=O)CCCCCCC [Example 94, (R)-4-(3-((R)-3,4-bis(octanoyloxy)butoxy)-5-((dimethylamino)methyl)phenoxy)butane-1,2-diyldioctanoate] | – | – | – | – | – | – | KD FVII 0.03 mg/kg [1]: 90% |
| CCCCC/C=C\C/C=C\CCCCCCCC(=O)OCc1cc(COC(=O)CCCCCCC/C=C\C/C=C\CCCCC)cc(COC(=O)OCCN(C)C)c1 [Example 70, (9Z,9′Z,12Z,12′Z)-(5-((((2-(dimethylamino)ethoxy)carbonyl)oxy)methyl)-1,3-phenylene)bis(methylene)bis(octadeca-9,12-dienoate)] | 1416 | 3110 | 31550 | 20124 | 18779 | 18358 | – |
| CCCCCCCC/C=C\CCCCCCCCOc1cc(OCCCCCCCC/C=C\CCCCCCCC)cc(C2OCC(COC(=O)CN(C)C)O2)c1 (centres unmarked) [Example 12, (2-(3,5-bis((Z)-octadec-9-en-1-yloxy)phenyl)-1,3-dioxolan-4-yl)methyl 2-(dimethylamino)acetate] | – | – | – | – | – | – | 2wp1 pool 1 ([2]; course B = days 0 & 42): 88; 2wp1 pool 2 ([2]; course B = days 0 & 42): 128; 2wp2 pool 1 ([2]; course B = days 0 & 42): 4550; 2wp2 pool 2 ([2]; course B = days 0 & 42): 4828; 4wp2 pool 1 ([2]; course B = days 0 & 42): 4787; 4wp2 pool 2 ([2]; course B = days 0 & 42): 3972 |
| CCCCC/C=C\C/C=C\CCCCCCCCOCC(CN(C)C)OCCCCCCCC/C=C\C/C=C\CCCCC (centres unmarked) [DLinDMA, 1,2-dilinoleyloxy-N,N-dimethyl-3-aminopropane, reference compound] | – | – | – | – | 26504 and 50799 | 28008 and 35992 | 2wp1 pool 1 ([2]; course B = days 0 & 42): 13; 2wp1 pool 2 ([2]; course B = days 0 & 42): 4; 2wp2 pool 1 ([2]; course B = days 0 & 42): 18290; 2wp2 pool 2 ([2]; course B = days 0 & 42): 5538; 4wp2 pool 1 ([2]; course B = days 0 & 42): 13936; 4wp2 pool 2 ([2]; course B = days 0 & 42): 7020 |
| CCCCC/C=C\C/C=C\CCCCCCCCOc1cc(COC(=O)CCCN(C)C)cc(OCCCCCCCC/C=C\C/C=C\CCCCC)c1 [Example 13, 3,5-bis((9Z,12Z)-octadeca-9,12-dien-1-yloxy)benzyl 4-(dimethylamino)butanoate] | 495 | 620 | 7157 | 12316 | – | – | – |
| CCCCC/C=C\C/C=C\CCCCCCCCOc1cc(C(=O)OCCCN(C)C)cc(OCCCCCCCC/C=C\C/C=C\CCCCC)n1 [Example 25, 3-(dimethylamino)propyl 2,6-bis((9Z,12Z)-octadeca-9,12-dien-1-yloxy)isonicotinate] | 1217 | 1883 | 1611 | 1156 | 2850 | 1767 | – |
| CCCCCCCC/C=C\CCCCCCCCOc1cc(OCCCCCCCC/C=C\CCCCCCCC)cc(C2OCC(CN3CCCC3)O2)c1 (centres unmarked) [Example 9, 1-((2-(3,5-bis((Z)-octadec-9-en-1-yloxy)phenyl)-1,3-dioxolan-4-yl)methyl)pyrrolidine] | 1832 | 1352 | 29707 | 18788 | – | – | – |
| CCCCC/C=C\C/C=C\CCCCCCCC(=O)OCc1cc(COC(=O)CCCCCCC/C=C\C/C=C\CCCCC)cc(COC(=O)OCCCN(CC)CC)c1 [Example 69, (9Z,9′Z,12Z,12′Z)-(5-((((3-(diethylamino)propoxy)carbonyl)oxy)methyl)-1,3-phenylene)bis(methylene)bis(octadeca-9,12-dienoate)] | 2853 | 4481 | 23851 | 20793 | 19075 | 21504 | – |
| CCCCC/C=C\C/C=C\CCCCCCCCOc1cc(COC(=O)OCCCN(C)C)cc(OCCCCCCCC/C=C\C/C=C\CCCCC)c1 [Example 68, 3,5-bis((9Z,12Z)-octadeca-9,12-dien-1-yloxy)benzyl (3-(dimethylamino)propyl) carbonate] | 1031 | 494 | 11315 | 7800 | 12963 | 17734 | – |
